Data: paper PMC7979765, “trans-Translation inhibitors bind to a novel site on the ribosome and clear Neisseria gonorrhoeae in vivo” (Nature Communications, 2021)
≈ marks a conversion by molar mass, not a printed value. Where “and” joins values, the source holds several entries; their conditions need not be identical. Equal entries are not always repeated. Where two headings read alike, the source gives them in different places.

Experiments:
[1] = system: N. gonorrhoeae strain 49226 (ATCC); assay: Frequency of resistance; type: cell-based, Neisseria gonorrhoeae; conditions: selection at 4x and 8x MIC
[2] = Liver microsome stability, dog; type: in vitro ADME; conditions: for half-life: dog, liver microsomes
Protocol: To examine potential for first-pass metabolism of analogs in the liver, the stability of analogs in the presence of liver microsome preparations (Eurofins Discovery for human, dog and rat; Xenotech for mouse) was measured using the method of Kuhnz, et al.[50]. for murine studies and Oback for the dog, human and rat studies. The amount of parent compound remaining after incubation with microsomes in the presence of NADPH over a 30 min time range was measured using a reverse-phase liquid chromatography/mass spectroscopy method that was customized for each compound. Half-lives were calculated using linear regression analysis of several time points.

Legionella pneumophila = assay: microbe, parasite or virus in culture; type: cell-based
Mycoplasma pneumoniae = assay: MIC, microbroth dilution; type: cell-based
CYP450 enzymes = assay: CYP450 inhibition assays (panel statement); type: in vitro ADME, human; conditions: 5 concentrations from 30 nM to 100 μM
Protocol: (§1) Several in vitro selectivity assays were performed at Eurofins Discovery Services using established methods and controls that behaved as expected (Supplementary Tables 5 and 6). […] For receptor panel profiling, MBX-4132 was evaluated at 10 μM and activity of >50% (agonist or antagonist; note that negative % inhibition indicates agonism) was scored as active.

CYP3A = CYP3A (Homo sapiens, UniProt P08684); assay: Cyp inhibition assays 4873, 4872; type: in vitro ADME
Protocol: as §1

Cav1.2 = target: T1, Cav1.2 (Homo sapiens, UniProt Q13936); assay: cell-based
T1 construct: Eurofins Discovery Services (contract assay) CYL8051QP2DR
Protocol: as §1

KCNQ1/mink = target: T2, KCNQ1/mink (Homo sapiens, UniProt P51787); assay: cell-based
T2 construct: Eurofins Discovery Services (contract assay) CYL8007QP2DR
Protocol: as §1

[3] = target: T3, Cholinesterase, Acetyl, ACES (Homo sapiens, UniProt P22303); assay: Receptor Profiling 104010; type: biochemical
T3 construct: Eurofins Discovery Services (contract assay) 104010
Protocol: as §1

Phosphodiesterase PDE3A = target: T4, Phosphodiesterase PDE3A (Homo sapiens, UniProt Q14432); assay: Receptor Profiling 152300; type: biochemical
T4 construct: Eurofins Discovery Services (contract assay) 152300
Protocol: as §1

Adrenergic α2A = target: T5, Adrenergic α2A (Homo sapiens, UniProt P08913); assay: Receptor Profiling 203630; type: binding
T5 construct: purchased Eurofins Discovery Services (Panlabs safety panel)
Protocol: as §1

Adrenergic β2 = target: T6, Adrenergic β2 (Homo sapiens, UniProt P07550); assay: Receptor Profiling 204110; type: binding
T6 construct: purchased Eurofins Discovery Services (Panlabs safety panel)
Protocol: as §1

Androgen (testosterone) = target: T7, Androgen (testosterone) (Homo sapiens, UniProt P10275); assay: Receptor Profiling 206000; type: binding
T7 construct: purchased Eurofins Discovery Services (Panlabs safety panel)
Protocol: as §1

[4] = system: Calcium Channel L-Type, Dihydropyridine; assay: Receptor Profiling 214600; type: binding, rat; conditions: 10 μM
Protocol: as §1

Cannabinoid CB1 = target: T8, Cannabinoid CB1 (Homo sapiens, UniProt P21554); assay: Receptor Profiling 217050; type: binding
T8 construct: purchased Eurofins Discovery Services (Panlabs safety panel)
Protocol: as §1

Cannabinoid CB2 = target: T9, Cannabinoid CB2 (Homo sapiens, UniProt P34972); assay: Receptor Profiling 217100; type: binding
T9 construct: purchased Eurofins Discovery Services (Panlabs safety panel)
Protocol: as §1

Glutamate, NMDA, Agonism = assay: Receptor Profiling 232810; type: binding, rat; conditions: 10 μM
Protocol: as §1

Histamine H1 = target: T10, Histamine H1 (Homo sapiens, UniProt P35367); assay: Receptor Profiling 239610; type: binding
T10 construct: purchased Eurofins Discovery Services (Panlabs safety panel)
Protocol: as §1

Opiate Kappa (OP2, KOP) = target: T11, Opiate Kappa (OP2, KOP) (Homo sapiens, UniProt P41145); assay: Receptor Profiling 260210; type: binding
T11 construct: purchased Eurofins Discovery Services (Panlabs safety panel)
Protocol: as §1

Potassium Channel [KA] = assay: Receptor Profiling 265510; type: binding, rat; conditions: 10 μM
Protocol: as §1

hERG potassium channel = target: T12, hERG potassium channel (Homo sapiens, UniProt Q12809); assay: Receptor Profiling 265910; type: binding; conditions: probe [3H]dofetilide
T12 construct: purchased Eurofins Discovery Services (Panlabs safety panel)
Protocol: as §1

[5] = target: T13, Serotonin (5-hydroxytryptamine) 5-HT1B (Homo sapiens, UniProt P28222); assay: Receptor Profiling 271230; type: binding
T13 construct: purchased Eurofins Discovery Services (Panlabs safety panel)
Protocol: as §1

Sodium Channel, Site 2 = assay: Receptor Profiling 279510; type: binding, rat; conditions: 10 μM
Protocol: as §1

[6] = target: T14, Transporter, Dopamine (DAT) (Homo sapiens, UniProt Q01959); assay: Receptor Profiling 220320; type: binding
T14 construct: Eurofins Discovery Services (contract assay) 220320
Protocol: as §1

[7] = mouse
[8] = system: N. gonorrhoeae ATCC 49226; assay: Time-kill assay

Sequence of CYP3A (P08684 2-503): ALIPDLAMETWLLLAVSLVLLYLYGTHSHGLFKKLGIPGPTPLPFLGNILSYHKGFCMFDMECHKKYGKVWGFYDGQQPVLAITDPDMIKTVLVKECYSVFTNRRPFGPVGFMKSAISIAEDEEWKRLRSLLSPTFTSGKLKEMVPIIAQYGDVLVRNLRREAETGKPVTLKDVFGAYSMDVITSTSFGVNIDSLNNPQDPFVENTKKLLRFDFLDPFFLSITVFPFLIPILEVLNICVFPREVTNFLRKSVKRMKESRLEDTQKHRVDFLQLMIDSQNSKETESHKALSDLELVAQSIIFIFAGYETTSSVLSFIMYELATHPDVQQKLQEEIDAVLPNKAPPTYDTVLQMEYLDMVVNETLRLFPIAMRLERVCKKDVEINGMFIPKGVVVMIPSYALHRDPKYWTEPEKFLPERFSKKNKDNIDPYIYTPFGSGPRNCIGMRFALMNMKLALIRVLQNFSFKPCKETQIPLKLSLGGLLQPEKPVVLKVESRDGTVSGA
T7 sequence (P10275 whole entry): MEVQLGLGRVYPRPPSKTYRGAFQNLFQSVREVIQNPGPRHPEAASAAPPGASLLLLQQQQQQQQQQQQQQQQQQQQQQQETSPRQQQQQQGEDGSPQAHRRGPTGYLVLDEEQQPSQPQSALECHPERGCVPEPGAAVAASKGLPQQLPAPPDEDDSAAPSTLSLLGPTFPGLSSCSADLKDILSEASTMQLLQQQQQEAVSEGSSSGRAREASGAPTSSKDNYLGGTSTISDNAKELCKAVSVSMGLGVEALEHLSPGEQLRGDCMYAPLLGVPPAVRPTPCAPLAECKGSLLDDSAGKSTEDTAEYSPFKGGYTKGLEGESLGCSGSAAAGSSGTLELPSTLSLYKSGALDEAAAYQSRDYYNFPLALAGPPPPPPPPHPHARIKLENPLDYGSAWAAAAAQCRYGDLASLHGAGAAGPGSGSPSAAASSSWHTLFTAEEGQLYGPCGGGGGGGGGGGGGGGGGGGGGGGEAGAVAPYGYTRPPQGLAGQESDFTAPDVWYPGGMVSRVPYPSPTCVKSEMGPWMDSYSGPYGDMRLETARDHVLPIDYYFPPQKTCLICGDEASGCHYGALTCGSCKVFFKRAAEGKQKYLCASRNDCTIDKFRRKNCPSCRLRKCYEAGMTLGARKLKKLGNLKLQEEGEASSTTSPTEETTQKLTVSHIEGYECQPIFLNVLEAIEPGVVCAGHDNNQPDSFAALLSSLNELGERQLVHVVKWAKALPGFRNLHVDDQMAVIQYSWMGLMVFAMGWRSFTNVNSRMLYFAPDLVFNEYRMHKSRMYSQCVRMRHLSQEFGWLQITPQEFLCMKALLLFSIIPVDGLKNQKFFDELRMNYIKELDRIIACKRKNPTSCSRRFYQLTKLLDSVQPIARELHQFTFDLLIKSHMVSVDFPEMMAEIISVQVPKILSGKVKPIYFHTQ
T4 sequence (Q14432 whole entry): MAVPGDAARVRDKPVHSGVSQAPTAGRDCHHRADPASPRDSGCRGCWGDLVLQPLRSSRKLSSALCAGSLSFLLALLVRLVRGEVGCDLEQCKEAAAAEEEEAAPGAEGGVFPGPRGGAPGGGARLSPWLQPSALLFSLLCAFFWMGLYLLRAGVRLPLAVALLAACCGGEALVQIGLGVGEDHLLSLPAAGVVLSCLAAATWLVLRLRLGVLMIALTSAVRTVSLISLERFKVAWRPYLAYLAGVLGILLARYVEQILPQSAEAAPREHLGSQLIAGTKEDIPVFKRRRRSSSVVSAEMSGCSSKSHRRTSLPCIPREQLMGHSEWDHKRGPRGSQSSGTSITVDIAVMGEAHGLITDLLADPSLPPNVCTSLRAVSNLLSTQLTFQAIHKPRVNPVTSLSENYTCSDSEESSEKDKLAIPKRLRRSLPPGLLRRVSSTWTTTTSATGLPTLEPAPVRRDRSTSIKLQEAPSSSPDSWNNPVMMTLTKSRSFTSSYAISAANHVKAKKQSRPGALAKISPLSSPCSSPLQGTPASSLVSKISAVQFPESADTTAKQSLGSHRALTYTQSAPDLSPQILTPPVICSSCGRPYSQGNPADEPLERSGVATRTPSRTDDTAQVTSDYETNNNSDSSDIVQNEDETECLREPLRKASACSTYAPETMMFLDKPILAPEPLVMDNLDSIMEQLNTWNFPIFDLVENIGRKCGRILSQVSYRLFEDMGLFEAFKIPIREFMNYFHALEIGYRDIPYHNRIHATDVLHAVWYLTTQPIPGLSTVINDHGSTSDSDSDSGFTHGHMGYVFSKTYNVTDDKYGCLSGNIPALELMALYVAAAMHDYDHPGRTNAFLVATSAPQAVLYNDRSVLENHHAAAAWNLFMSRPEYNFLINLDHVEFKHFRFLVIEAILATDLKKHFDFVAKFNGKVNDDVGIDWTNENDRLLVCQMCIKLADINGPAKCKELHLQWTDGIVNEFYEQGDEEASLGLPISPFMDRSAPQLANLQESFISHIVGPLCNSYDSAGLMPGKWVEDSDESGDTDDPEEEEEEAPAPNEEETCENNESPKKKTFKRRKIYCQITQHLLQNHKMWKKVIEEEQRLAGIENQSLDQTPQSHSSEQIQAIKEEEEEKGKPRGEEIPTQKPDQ
T13 sequence (P28222 whole entry): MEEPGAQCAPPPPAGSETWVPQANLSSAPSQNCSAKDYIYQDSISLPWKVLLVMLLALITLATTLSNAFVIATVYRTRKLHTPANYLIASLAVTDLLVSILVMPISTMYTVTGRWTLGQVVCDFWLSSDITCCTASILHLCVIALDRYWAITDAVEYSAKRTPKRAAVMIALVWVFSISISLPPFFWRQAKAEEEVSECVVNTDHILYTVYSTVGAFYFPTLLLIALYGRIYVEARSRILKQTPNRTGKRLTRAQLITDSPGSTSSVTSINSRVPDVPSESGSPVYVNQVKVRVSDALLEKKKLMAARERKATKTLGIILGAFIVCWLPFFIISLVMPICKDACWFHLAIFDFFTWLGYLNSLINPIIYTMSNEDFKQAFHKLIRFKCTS
T10 sequence (P35367 whole entry): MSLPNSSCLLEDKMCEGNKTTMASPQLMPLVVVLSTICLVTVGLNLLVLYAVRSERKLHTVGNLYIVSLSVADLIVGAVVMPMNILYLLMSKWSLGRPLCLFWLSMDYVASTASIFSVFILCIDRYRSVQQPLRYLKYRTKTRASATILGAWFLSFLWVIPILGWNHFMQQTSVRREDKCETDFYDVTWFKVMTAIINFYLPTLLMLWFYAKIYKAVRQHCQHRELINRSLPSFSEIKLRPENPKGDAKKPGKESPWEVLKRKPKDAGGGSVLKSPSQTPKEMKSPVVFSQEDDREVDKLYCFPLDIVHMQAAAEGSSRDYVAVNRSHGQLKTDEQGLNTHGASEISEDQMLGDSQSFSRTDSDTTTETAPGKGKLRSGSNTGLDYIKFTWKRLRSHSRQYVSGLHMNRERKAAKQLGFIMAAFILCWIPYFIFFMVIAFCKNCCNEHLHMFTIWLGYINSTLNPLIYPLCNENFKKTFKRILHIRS
T3 sequence (P22303 32-614): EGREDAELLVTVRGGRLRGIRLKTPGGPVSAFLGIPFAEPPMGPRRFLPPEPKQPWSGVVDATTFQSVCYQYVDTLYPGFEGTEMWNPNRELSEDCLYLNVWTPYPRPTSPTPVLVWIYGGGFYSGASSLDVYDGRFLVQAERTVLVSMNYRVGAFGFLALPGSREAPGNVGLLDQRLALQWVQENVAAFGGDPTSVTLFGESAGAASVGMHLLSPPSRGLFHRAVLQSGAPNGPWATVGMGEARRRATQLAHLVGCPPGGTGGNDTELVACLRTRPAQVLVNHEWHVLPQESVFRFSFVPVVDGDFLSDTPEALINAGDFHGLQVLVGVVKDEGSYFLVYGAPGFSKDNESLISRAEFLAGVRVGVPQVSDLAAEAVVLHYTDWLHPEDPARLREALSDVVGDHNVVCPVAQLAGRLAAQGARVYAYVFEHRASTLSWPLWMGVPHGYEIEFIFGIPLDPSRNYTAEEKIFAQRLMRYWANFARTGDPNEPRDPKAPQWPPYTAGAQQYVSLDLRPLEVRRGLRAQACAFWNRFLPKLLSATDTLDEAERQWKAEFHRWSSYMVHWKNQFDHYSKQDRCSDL
T11 sequence (P41145 whole entry): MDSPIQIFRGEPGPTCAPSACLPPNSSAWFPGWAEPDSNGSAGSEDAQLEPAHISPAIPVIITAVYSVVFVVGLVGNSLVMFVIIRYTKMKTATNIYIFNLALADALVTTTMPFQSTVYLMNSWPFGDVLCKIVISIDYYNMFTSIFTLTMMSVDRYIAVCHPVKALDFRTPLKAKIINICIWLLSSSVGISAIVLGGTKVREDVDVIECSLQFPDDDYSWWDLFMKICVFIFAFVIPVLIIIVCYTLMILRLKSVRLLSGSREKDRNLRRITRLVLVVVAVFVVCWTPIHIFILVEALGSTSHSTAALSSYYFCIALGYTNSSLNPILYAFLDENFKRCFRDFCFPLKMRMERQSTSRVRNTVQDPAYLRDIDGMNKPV
T5 sequence (P08913 whole entry): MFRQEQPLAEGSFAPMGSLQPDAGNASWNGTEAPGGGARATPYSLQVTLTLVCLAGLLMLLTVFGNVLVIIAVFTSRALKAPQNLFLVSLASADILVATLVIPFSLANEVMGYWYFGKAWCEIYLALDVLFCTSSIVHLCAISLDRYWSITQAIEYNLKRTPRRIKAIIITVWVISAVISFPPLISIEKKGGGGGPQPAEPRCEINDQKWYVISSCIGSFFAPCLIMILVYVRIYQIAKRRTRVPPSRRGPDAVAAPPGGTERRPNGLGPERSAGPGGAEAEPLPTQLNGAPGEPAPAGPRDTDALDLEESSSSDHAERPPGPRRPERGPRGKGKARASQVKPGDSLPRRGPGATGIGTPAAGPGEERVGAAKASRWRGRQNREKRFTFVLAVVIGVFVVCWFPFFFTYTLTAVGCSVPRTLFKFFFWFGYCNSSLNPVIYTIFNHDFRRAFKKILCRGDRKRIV

With O=C(Nc1nnc(-c2ccc(F)cc2)o1)N1CCc2ccccc2C1 [MBX-4132] the “frequency of spontaneous mutants resistant” value [1] was < 1.2 × 10^−9, the “Microsomal stability (t½, min) Dog” value ([2]; Replicate 1/2, Eurofins) was >>60 min and the half-life ([2]; Average Value, Eurofins, read-out: Microsomal stability (t½, min) Dog) was greater than 60 min. The half-life ([2]; Replicate 1/2, Eurofins, read-out: Microsomal stability (t½, min) Dog) was greater than 60 min, the half-life ([2]; Reported value, Eurofins, read-out: Microsomal stability (t½, min) Dog) was greater than 120 min and the half-life ([2]; read-out: Microsomal Stability (t1/2; min) Dog) was greater than 120 min. The MIC (Legionella pneumophila; Legionella pneumophila ATCC 33153, replicates) was 8.50 µg/mL (≈ 25.1 µM), the MIC (Legionella pneumophila; Legionella pneumophila, ATCC33153) was 8.5 µg/mL (≈ 25.1 µM) and the MIC (Mycoplasma pneumoniae; Mycoplasma pneumoniae ATCC 15531, replicates) was no less than 34 µg/mL. The MIC (Mycoplasma pneumoniae; Mycoplasma, ATCC15531, strain ATCC 15531, read-out: MIC) was no less than 34 µg/mL, the “CYP450 inhibitory activity (in words)” value (CYP450 enzymes) was “no inhibitory activity >50%” and the “pIC50 (µM) reported” value (CYP3A; CYP3A midazolam, catalog reference 4873) was “No activity”. It also gave an IC50 (CYP3A; human, probe testosterone) greater than 100 µM, an IC50 (Cav1.2) greater than 30 µM and an IC50 (KCNQ1/mink) greater than 30 µM. It also gave an inhibition at 10 µM [3] of 6%, an inhibition at 10 µM (Phosphodiesterase PDE3A) of -6% and an inhibition at 10 µM (Adrenergic α2A) of 35%. For the same compound, the inhibition at 10 µM (Adrenergic β2) was 35%, the inhibition at 10 µM (Androgen (testosterone)) was -2% and the “% inhibition” value [4] was 11%. For the same compound, the inhibition at 10 µM (Cannabinoid CB1) was -4%, the inhibition at 10 µM (Cannabinoid CB2) was -4% and the “% inhibition” value (Glutamate, NMDA, Agonism) was 8%. The inhibition at 10 µM (Histamine H1) was 11%, the inhibition at 10 µM (Opiate Kappa (OP2, KOP)) was 13% and the “% inhibition” value (Potassium Channel [KA]) was -2%. The inhibition at 10 µM (hERG potassium channel) was 27%, the inhibition at 10 µM [5] was 21% and the “% inhibition” value (Sodium Channel, Site 2) was 21%. For the same compound, the inhibition at 10 µM [6] was 3%, the “Murine serum stability (% remaining after 1 hr)” value [7] was 101% and the “AVE CFU/ml” value ([8]; 1X MIC, 0 h) was 9800000 CFU/ml. The “AVE CFU/ml” value ([8]; 1X MIC, 1 h) was 7.80E+06 CFU/ml and 7800000 CFU/ml, the “CFU/mL, replicates 1-3” value ([8]; 1X MIC, 1 h) was 7400000 CFU/mL and 6800000 CFU/mL and 9200000 CFU/mL and the “AVE CFU/ml” value ([8]; 1X MIC, 2 h) was 3.60E+06 CFU/ml and 3600000 CFU/ml. The “CFU/mL, replicates 1-3” value ([8]; 1X MIC, 2 h) was 3800000 CFU/mL and 3600000 CFU/mL and 3400000 CFU/mL, the “AVE CFU/ml” value ([8]; 1X MIC, 4 h) was 5133333 CFU/ml and 5.13E+06 CFU/ml and the “CFU/mL, replicates 1-3” value ([8]; 1X MIC, 4 h) was 5800000 CFU/mL and 5200000 CFU/mL and 4400000 CFU/mL. The “AVE CFU/ml” value ([8]; 1X MIC, 6 h) was 6200000 CFU/ml and 6.20E+06 CFU/ml, the “CFU/mL, replicates 1-3” value ([8]; 1X MIC, 6 h) was 6000000 CFU/mL and 5800000 CFU/mL and 6800000 CFU/mL and the “AVE CFU/ml” value ([8]; 1X MIC, 8 h) was 1173333 CFU/ml. The “AVE CFU/ml” value ([8]; 1X MIC, 8 h, listed as 4132) was 1.17E+06 CFU/ml, the “CFU/mL, replicates 1-3” value ([8]; 1X MIC, 8 h, listed as 4132) was 1120000 CFU/mL and 1160000 CFU/mL and 1240000 CFU/mL and the “AVE CFU/ml” value ([8]; 1X MIC, 24 h) was 6866667 CFU/ml and 6.87E+06 CFU/ml. For the same compound, the “CFU/mL, replicates 1-3” value ([8]; 1X MIC, 24 h) was 7400000 CFU/mL and 6400000 CFU/mL and 6800000 CFU/mL, the “AVE CFU/ml” value ([8]; 4X MIC, 0 h) was 9800000 CFU/ml and the “AVE CFU/ml” value ([8]; 4X MIC, 1 h) was 5.73E+06 CFU/ml and 5733333 CFU/ml. For the same compound, the “CFU/mL, replicates 1-3” value ([8]; 4X MIC, 1 h) was 6400000 CFU/mL and 5600000 CFU/mL and 5200000 CFU/mL, the “AVE CFU/ml” value ([8]; 4X MIC, 2 h) was 3.73E+06 CFU/ml and 3733333 CFU/ml and the “CFU/mL, replicates 1-3” value ([8]; 4X MIC, 2 h) was 3600000 CFU/mL and 3400000 CFU/mL and 4200000 CFU/mL. For the same compound, the “AVE CFU/ml” value ([8]; 4X MIC, 4 h) was 2733333 CFU/ml and 2.73E+06 CFU/ml, the “CFU/mL, replicates 1-3” value ([8]; 4X MIC, 4 h) was 2400000 CFU/mL (2×) and 3400000 CFU/mL and the “AVE CFU/ml” value ([8]; 4X MIC, 6 h) was 2866667 CFU/ml and 2.87E+06 CFU/ml. For the same compound, the “CFU/mL, replicates 1-3” value ([8]; 4X MIC, 6 h) was 3000000 CFU/mL (2×) and 2600000 CFU/mL, the “AVE CFU/ml” value ([8]; 4X MIC, 8 h) was 760000 CFU/ml and 7.60E+05 CFU/ml and the “CFU/mL, replicates 1-3” value ([8]; 4X MIC, 8 h) was 780000 CFU/mL and 800000 CFU/mL and 700000 CFU/mL. The “AVE CFU/ml” value ([8]; 4X MIC, 24 h) was 0 CFU/ml and 0.00E+00 CFU/ml, the “CFU/mL, replicates 1-3” value ([8]; 4X MIC, 24 h) was 0 CFU/mL and the “AVE CFU/ml” value ([8]; 8X MIC, 0 h) was 9800000 CFU/ml. The “AVE CFU/ml” value ([8]; 8X MIC, 1 h) was 5.13E+06 CFU/ml and 5133333 CFU/ml, the “CFU/mL, replicates 1-3” value ([8]; 8X MIC, 1 h) was 5200000 CFU/mL and 4600000 CFU/mL and 5600000 CFU/mL and the “AVE CFU/ml” value ([8]; 8X MIC, 2 h) was 4.93E+06 CFU/ml and 4933333 CFU/ml. For the same compound, the “CFU/mL, replicates 1-3” value ([8]; 8X MIC, 2 h) was 5400000 CFU/mL and 5200000 CFU/mL and 4200000 CFU/mL, the “AVE CFU/ml” value ([8]; 8X MIC, 4 h) was 3000000 CFU/ml and 3.00E+06 CFU/ml and the “CFU/mL, replicates 1-3” value ([8]; 8X MIC, 4 h) was 3000000 CFU/mL and 2800000 CFU/mL and 3200000 CFU/mL. The “AVE CFU/ml” value ([8]; 8X MIC, 6 h) was 993333 CFU/ml and 9.93E+05 CFU/ml, the “CFU/mL, replicates 1-3” value ([8]; 8X MIC, 6 h) was 1060000 CFU/mL and 940000 CFU/mL and 980000 CFU/mL and the “AVE CFU/ml” value ([8]; 8X MIC, 8 h) was 433333 CFU/ml and 4.33E+05 CFU/ml. The “CFU/mL, replicates 1-3” value ([8]; 8X MIC, 8 h) was 400000 CFU/mL and 480000 CFU/mL and 420000 CFU/mL, the “AVE CFU/ml” value ([8]; 8X MIC, 24 h) was 0 CFU/ml and 0.00E+00 CFU/ml and the “CFU/mL, replicates 1-3” value ([8]; 8X MIC, 24 h) was 0 CFU/mL. For the same compound, the MIC ([8]; Neisseria gonorrhoeae, ATCC49226) was 0.5 µg/mL (≈ 1.48 µM) and the bactericidal concentration ([8]; time-kill, N. gonorrhoeae) was no less than 4 X MIC.
